# Data published in patent publication US20170121344A1 (Siga Technologies, Inc., priority 2009, published 2017).
# pEC50: −log10 of the molar value. Where two headings read alike, the source gives them in different places.
# Test system: Dengue-2 (Strain New Guinea C)
# Assay: Viral yield assay against Dengue-2 in Vero cells
# Assay type: cell-based, Dengue virus
# Settings: Dengue virus; for pEC50: read-out: Activity (EC50 class) against Dengue-2 Virus in Vero cells; for EC50: DENV2, viral yield assay, MOI 0.1, 48 hours post infection, read-out: Activity (EC50 in μM) DENV-2
# Protocol: Compounds that were active in the primary screen were tested for activity in viral yield assays. […] Vero cells in 12-well plates were infected with dengue-2 virus at a multiplicity of infection (MOI) of 0.1, treated with compound (or DMSO as a control), incubated at 37° C., harvested 48 hours post infection and titered on Vero cells as described above. The EC50 was calculated through ExcelFit. Activities against other serotypes of dengue virus were determined in a similar way.
# [1] = Vero cells, MOI 0.1, harvested 48 hours post infection
Compound,pEC50 [1],EC50 (Vero cells) [µM],other results
"Cc1cc(NC(=O)c2sc3nc(C)c(C)c(C)c3c2N)no1 [Compound 255, 3-Amino-4,5,6-trimethyl-thieno[2,3-b]pyridine-2-carboxylic acid (5-methyl-isoxazol-3-yl)-amide]",< 4.60,–,–
"Cc1cccc(NC(=O)c2sc3nc(-c4ccc(Cl)cc4)ccc3c2N)c1 [Compound 632, 3-amino-6-(4-chlorophenyl)-N-(m-tolyl)thieno[2,3-b]pyridine-2-carboxamide]",–,< 5,–
"Cc1cc(C)c2c(N)c(C(=O)NC34CC5CC(CC(C5)C3)C4)sc2n1 [Compound 122, 3-Amino-4,6-dimethyl-thieno[2,3-b]pyridine-2-carboxylic acid adamantan-1-ylamide]",< 4.60,–,–
"COc1ccc(CNC(=O)c2sc3nc4c(cc3c2N)CN(C)CC4)cc1OC [Compound 279, 3-Amino-6-methyl-5,6,7,8-tetrahydro-thieno[2,3-b][1,6]naphthyridine-2-carboxylic acid 3,4-dimethoxy-benzylamide]",< 4.60,–,–
"Nc1c(C(=O)Nc2ccc([N+](=O)[O-])cc2)sc2nc3c(cc12)CCC3 [Compound 215, 3-Amino-6,7-dihydro-5H-cyclopenta[b]thieno[3,2-e]pyridine-2-carboxylic acid (4-nitro-phenyl)-amide]",< 4.60,–,–
"Cc1cc(C)c2c(N)c(C(=O)Nc3cccc(C(F)(F)F)c3)sc2n1 [Compound 9, 3-Amino-4,6-dimethyl-thieno[2,3-b]pyridine-2-carboxylic acid (3-trifluoromethyl-phenyl)-amide]",–,–,"pEC50 (Vero, 48 h): > 5.30"
"Nc1c(C(=O)Nc2ccc(Cl)c(C(F)(F)F)c2)sc2nc(-c3cccs3)ccc12 [Compound 443, 3-amino-N-[4-chloro-3-(trifluoromethyl)phenyl]-6-(2-thienyl) thieno[2,3-b]pyridine-2-carboxamide]",–,< 5,–
"COc1cccc(-c2ccc3c(N)c(C(=O)Nc4ccccc4OC)sc3n2)c1 [Compound 504, 3-amino-N-(2-methoxyphenyl)-6-(3-methoxyphenyl)thieno[2,3-b]pyridine-2-carboxamide]",–,< 5,–
"Cc1c(C(=O)NC(C)(C)C)sc2nc(-c3cccs3)cc(C(F)(F)F)c12 [Compound 388, N-tert-butyl-3-methyl-6-(2-thienyl)-4-(trifluoromethyl)thieno[2,3-b]pyridine-2-carboxamide]",–,< 5,–
"COc1cccc(-c2ccc3c(N)c(C(=O)Nc4cc(C)ccc4C)sc3n2)c1 [Compound 626, 3-amino-N-(2,5-dimethylphenyl)-6-(3-methoxyphenyl)thieno[2,3-b]pyridine-2-carboxamide]",–,< 5,–
"CCc1nnc(NC(=O)c2sc3nc(C)cc(C(F)(F)F)c3c2N)s1 [Compound 65, 3-Amino-6-methyl-4-trifluoromethyl-thieno[2,3-b]pyridine-2-carboxylic acid (5-ethyl-[1,3,4]thiadiazol-2-yl)-amide]",4.60 to 5.30,–,–
"O=c1[nH]cnc2c1sc1nc(N3CCOCC3)c3c(c12)CCCC3 [Compound 182, 5-Morpholin-4-yl-1,2,3,4-tetrahydro-9H-7-thia-6,9,11-triaza-benzo[c]fluoren-8-one]",–,–,"pEC50 (Vero, 48 h): < 4.60"
"CN1CCc2nc3sc(C(=O)NCc4ccc(F)cc4)c(N)c3cc2C1 [Compound 14, 3-Amino-6-methyl-5,6,7,8-tetrahydro-thieno[2,3-b][1,6]naphthyridine-2-carboxylic acid 4-fluoro-benzylamide]",> 5.30,–,–
"Nc1c(C(=O)Nc2ccc(Cl)cc2Cl)sc2nc(-c3ccc4c(c3)OCO4)ccc12 [Compound 537, 3-amino-6-(1,3-benzodioxol-5-yl)-N-(2,4-dichlorophenyl)thieno[2,3-b]pyridine-2-carboxamide]",–,< 5,–
"CCc1c2c(nc3sc(C(=O)N4CCOCC4)c(N)c13)CC(C)(C)CC2=O [Compound 208, 3-Amino-4-ethyl-7,7-dimethyl-2-(morpholine-4-carbonyl)-7,8-dihydro-6H-thieno[2,3-b]quinolin-5-one]",< 4.60,–,–
"Cc1cc(NC(=O)c2sc3nc(-c4ccc5c(c4)OCO5)ccc3c2N)ccc1Br [Compound 590, 3-amino-6-(1,3-benzodioxol-5-yl)-N-(4-bromo-3-methyl-phenyl)thieno[2,3-b] pyridine-2-carboxamide]",–,< 5,–
"COCc1cc(C)nc2sc3c(=O)[nH]nnc3c12 [Compound 76, 9-Methoxymethyl-7-methyl-3H-pyrido[3′,2′:4,5]thieno[3,2-d][1,2,3]triazin-4-one]",4.60 to 5.30,–,–
"Cc1ccc(NC(=O)c2sc3nc(-c4ccc(Cl)cc4)ccc3c2N)cc1C [Compound 348, 3-amino-6-(4-chlorophenyl)-N-(3,4-dimethyl-phenyl)thieno [2,3-b]pyridine-2-carboxamide]",–,< 5,–
"COc1ccc(-c2ccc3c(N)c(C(=O)Nc4cccc(Cl)c4C)sc3n2)cc1OC [Compound 573, 3-amino-N-(3-chloro-2-methyl-phenyl)-6-(3,4-dimethoxyphenyl)thieno[2,3-b] pyridine-2-carboxamide]",–,< 5,–

Compound,pEC50 [1],EC50 (Vero cells) [µM],other results
Cc1cc(C)c2c(C)c(C(=O)N3CCN(c4cnccn4)CC3)sc2n1 [Compound 404],–,< 5,–
"CCc1nnc(NC(=O)c2sc3nc4c(cc3c2N)CN(C(C)C)CC4)s1 [Compound 272, 3-Amino-6-isopropyl-5,6,7,8-tetrahydro-thieno[2,3-b][1,6]naphthyridine-2-carboxylic acid (5-ethyl-[1,3,4]thiadiazol-2-yl)-amide]",< 4.60,–,–
"Cc1cc(C)c2c(N)c(C(=O)Nc3cccc4cccnc34)sc2n1 [Compound 121, 3-Amino-4,6-dimethyl-thieno[2,3-b]pyridine-2-carboxylic acid quinolin-8-ylamide]",< 4.60,–,–
"COc1ccc(-c2ccc3c(N)c(C(=O)Nc4cc(C)ccc4C)sc3n2)cc1OC [Compound 524, 3-amino-6-(3,4-dimethoxyphenyl)-N-(2,5-dimethylphenyl)thieno[2,3-b]pyridine-2-carboxamide]",–,< 5,–
"Nc1c(C(=O)N2CCOCC2)sc2nc3c(cc12)CCCCC3 [Compound 139, (3-Amino-6,7,8,9-tetrahydro-5H-1-thia-10-aza-cyclohepta[f]inden-2-yl)-morpholin-4-yl-methanone]",–,–,"pEC50 (Vero, 48 h): < 4.60"
"Nc1c(C(=O)Nc2cccc3ccccc23)sc2nc3c(cc12)CCCCC3 [Compound 374, 3-amino-N-(naphthalen-1-yl)-6,7,8,9-tetrahydro-5H-cyclohepta[b]thieno[3,2-e] pyridine-2-carboxamide]",–,< 5,–
"COCc1cc(C)nc2sc3c(=O)n(-c4cccc5ccccc45)nnc3c12 [Compound 150, 9-Methoxymethyl-7-methyl-3-naphthalen-1-yl-3H-pyrido[3′,2′:4,5]thieno[3,2-d][1,2,3]triazin-4-one]",–,–,"pEC50 (Vero, 48 h): < 4.60"
"COc1ccc(Cl)cc1NC(=O)c1sc2nc(-c3ccc4c(c3)OCO4)ccc2c1N [Compound 594, 3-amio-6-(1,3-benzodioxol-5-yl)-N-(5-chloro-2-methoxy-phenyl)thieno[2,3-b] pyridine-2-carboxamide]",–,< 5,–
"N#Cc1c(N)nc2sc(C(=O)Nc3ccc(Br)cc3)c(N)c2c1-c1ccco1 [Compound 6, 3,6-Diamino-5-cyano-4-furan-2-yl-thieno[2,3-b]pyridine-2-carboxylic acid (4-bromo-phenyl)-amide]",> 5.30,–,–
"Nc1c(C(=O)Nc2cc(Cl)ccc2Cl)sc2nc(-c3ccc(F)cc3)ccc12 [Compound 605, 3-amino-N-(2,5-dichlorophenyl)-6-(4-fluorophenyl)thieno[2,3-b]pyridine-2-carboxamide]",–,< 5,–
"Cc1ccc(NC(=O)c2sc3nc(-c4ccc(F)cc4)ccc3c2N)cc1C [Compound 607, 3-amino-N-(3,4-dimethylphenyl)-6-(4-fluorophenyl)thieno[2,3-b]pyridine-2-carboxamide]",–,< 5,–
"CN1CCc2nc3sc(C(=O)Nc4ccc(OC(F)(F)F)cc4)c(N)c3cc2C1 [Compound 30, 3-Amino-6-methyl-5,6,7,8-tetrahydro-thieno[2,3-b][1,6]naphthyridine-2-carboxylic acid (4-trifluoromethoxy-phenyl)-amide]",> 5.30,–,–
"COc1cccc(-c2ccc3c(N)c(C(=O)Nc4cc(OC)ccc4Cl)sc3n2)c1 [Compound 548, 3-amino-N-(2-chloro-5-methoxy-phenyl)-6-(3-methoxyphenyl)thieno[2,3-b] pyridine-2-carboxamide]",–,< 5,–
"Nc1c(C(=O)Nc2ccc(F)c(Cl)c2)sc2nc(-c3ccc(F)cc3)ccc12 [Compound 613, 3-amino-N-(3-chloro-4-fluoro-phenyl)-6-(4-fluorophenyl)thieno[2,3-b]pyridine-2-carboxamide]",–,< 5,–
"COCc1cc(C)nc2sc(C(=O)Nc3cccc(C(F)(F)F)c3)c(N)c12 [Compound 98, 3-Amino-4-methoxymethyl-6-methyl-thieno[2,3-b]pyridine-2-carboxylic acid (3-trifluoromethyl-phenyl)-amide]",–,–,"pEC50 (Vero, 48 h): 4.60 to 5.30"
"Nc1c(C(=O)Nc2ccc([N+](=O)[O-])cc2)sc2nc3c(cc12)CCCC3 [Compound 228, 3-Amino-5,6,7,8-tetrahydro-thieno[2,3-b]quinoline-2-carboxylic acid (4-nitro-phenyl)-amide]",< 4.60,–,–
"Nc1c(C(=O)N2CCCCC2)sc2nc3c(cc12)CCC3 [Compound 188, (3-Amino-6,7-dihydro-5H-cyclopenta[b]thieno[3,2-e]pyridin-2-yl)-piperidin-1-yl-methanone]",< 4.60,–,–
"C=CCc1c(C)nc2sc(C(=O)Nc3ccc([N+](=O)[O-])cc3)c(N)c2c1C [Compound 225, 5-Allyl-3-amino-4,6-dimethyl-thieno[2,3-b]pyridine-2-carboxylic acid (4-nitro-phenyl)-amide]",< 4.60,–,–
